# Source: patent publication US20070260068A1, “Method for the Preparation of Crystal Forms of Torsemide in a Pure State” (priority 2004, published 2007)
# How the values were obtained:
# [1] = solubility of amorphous torsemide compared with crystalline forms; format: physicochemical; settings: isolated amorphous torsemide vs crystalline forms incl. those of U.S. 5,914,336, Re. 34,672 and WO 00/20395
# [2] = stability of the crystal form in an ethanol slurry; format: physicochemical
# Protocol: (§1) In another embodiment of the present invention, torsemide modification I may be made from torsemide modification II by reslurry in ethanol. By the process of the present invention, torsemide modification II is stirred at room temperature in ethanol for a time sufficient to induce the transformation of torsemide modification II to torsemide modification I. Preferably the mixture is stirred for 2 hours. Torsemide modification I is isolated upon filtering the mixture followed by drying under high vacuum at a temperature of about 40° C. to about 60° C. for a sufficient time to complete drying. Drying is complete upon reaching constant weight. It has been observed that torsemide modification I is stable in an ethanol slurry for at least 65 hours.
# as §1, with “dimethyl formamide (DMF).” for “ethanol.”, “methods” for “process”, “DMF” for “ethanol”, “I.” for “I. Preferably the mixture is stirred for 2 hours.”, “It has been observed that torsemide modification I is stable in an ethanol slurry for at least 65 hours.” left out
SMILES,solubility relative to crystalline forms of torsemide [1],time stable in an ethanol slurry [2]
"Cc1cccc(Nc2ccncc2S(=O)(=O)NC(=O)NC(C)C)c1 [amorphous torsemide, 1-Isopropyl-3-[(4-m-toluidino-3-pyridyl)sulfonyl] urea]",more soluble than crystalline forms of torsemide,
"Cc1cccc(Nc2ccncc2S(=O)(=O)NC(=O)NC(C)C)c1 [torsemide modification I, 1-Isopropyl-3-[(4-m-toluidino-3-pyridyl)sulfonyl] urea]",,at least 65 hours
